Data from PMC12610274, “Identification of Marrubiin as a Cathepsin C Inhibitor for Treating Rheumatoid Arthritis” (Molecules, 2025).

Key:
[1] = test system: TNF-α, IL-6, IL-1β, MCP-1, CXCL2 in RAW 264.7 cells; assay: LPS-induced cytokine and chemokine secretion, ELISA; format: cell-based, mouse; conditions: LPS-stimulated RAW 264.7 cells, 24 h, concentration-dependent
Protocol: RAW264.7 cells in the logarithmic growth phase were counted and diluted to a concentration of 6 × 10^4 cells/mL. After thorough mixing, the cell suspension was seeded into 48-well plates and incubated in a humidified atmosphere containing 5% CO2 at 37 °C. Following 24 h of incubation, the culture medium was carefully aspirated, and the cells were gently washed with phosphate-buffered saline. […] After 1 h of pre-incubation, 30 μL of lipopolysaccharide (1 μg/mL) was added to each well except for the blank control group, which remained unstimulated. Following an additional 24 h incubation under identical conditions, the culture supernatants were collected to assess NO production using the Griess reagent assay. Concentrations of pro-inflammatory cytokines and chemokines were determined using commercially available ELISA kits according to the protocols.

Cat G = Cat G activity in blood and bone marrow of mice; format: in vivo, C57BL/6 mice; conditions: 30 mg/kg daily gavage, 7 days
Protocol: (§1) A total of 25 C57BL/6 mice (6–8 weeks old, weighing approximately 20 g, with equal numbers of males and females) were randomly divided into five groups. Mice in the compound-treated groups were orally administered the compound once daily at doses of 0.3, 3, and 30 mg/kg for 7 consecutive days. […] Mice in the normal group were given an equal volume of normal saline at the same time points. The body weight, death rate, and behavior were observed and recorded daily for one week. After 7 days, bone marrow and blood samples were collected from the mice and lysed using 8% Triton X-100 buffer. The lysates were stored at −20 °C until testing. The activity assays for CTSC and NSPs were performed as described above. The mice were anesthetized and the tissues were taken for H&E staining.

CTSC [2] = biological target: T1, CTSC (Mus musculus, UniProt P97821); assay: CTSC activity in blood and bone marrow of mice; format: in vivo, C57BL/6 mice; conditions: 30 mg/kg daily gavage, 7 days
T1 construct: from tissue; host or cells: mouse blood and bone marrow lysates
Protocol: as §1

CTSC [3] = biological target: CTSC (Homo sapiens, UniProt P53634); assay: Human recombinant CTSC isolated enzyme assay; format: biochemical; parameters: purchased R&D Systems; conditions: human recombinant CTSC, cell-free, 12-point dose-response; read-out: CTSC Enz (IC50: nM)
Protocol: Both recombinant CTSL and CTSC for in vitro cell-free-based enzymatic activity assay can be purchased from R&D Systems (Minneapolis, MN, USA), a biotechnology company. According to the standardized procedures and material ratios provided by R&D Systems, prepare the activation solution (25 mM MES + 5 mM DTT, pH 6.0) and the assay solution (25 mM MES + 50 mM NaCl + 5 mM DTT, pH 6.0) in advance for later use. Dilute the detection substrate H-Gly-Arg-AMC to a 200 µM solution with the assay solution for standby. Prepare the working solution of compounds to be tested using the assay solution, with the concentration of working solution being 10 times the final test concentration. Dilute CTSC and CTSL, respectively, with cold activation solution. Thoroughly mix the two activation solutions containing the proteins to achieve final concentrations of 300 nM for CTSL and 440 nM for CTSC. After co-incubation for 1 h, the activated CTSC treated with CTSL can be used for the enzymatic activity inhibition efficacy test of compounds. Dilute the activated CTSC to 4.4 nM with cold assay buffer. Incubate 4 μL of the activated CTSC with 1 μL of the compound working solution (test group) or 1 μL of blank assay solution (control group) at room temperature for 3 h. Then, add 5 μL of the detection substrate to achieve a final concentration of 100 μM. Mix 5 µL each of the assay solution and the substrate solution as the blank group. After 1 h, the absorbance of detection substrate was measured using a multifunctional microplate reader at excitation/emission wavelengths of 380 nm/460 nm. The inhibitory efficacy of molecules on enzyme activity was calculated based on the absorbance difference between test group and control group. […] Each group of tests mentioned above was independently repeated at least 3 times, and IC50 values were calculated using SPSS 10.0.

PR3 [4] = assay: NSPs activity in U937 cells after 5 days of treatment, PR3; format: cell-based, human; conditions: U937, 10 μM
Protocol: U937 cells in the logarithmic growth phase were collected and equally divided into six portions. Four of these portions were treated with DMSO solutions of the test compound at varying concentrations to achieve final concentrations of 1.25, 2.5, 5, and 10 μM, respectively. An equal volume of DMSO was added to one portion as a blank control, while another portion treated with a DMSO solution of AZD7986 served as a positive control. The cells were cultured under standard U937 conditions for 5 consecutive days, with daily medium changes and fresh compound treatments administered using the same protocol. Following 5 days of treatment, cells were harvested, washed twice thoroughly with phosphate-buffered saline, and lysed in phosphate-buffered saline containing 1% Triton X-100. The lysates were centrifuged to collect the supernatant, and protein concentrations were determined as previously described to ensure equal total protein loading across all samples. The prepared samples were stored at −20 °C until further analysis. Different assay buffers were prepared for diluting samples and measuring the activities of specific NSPs: a buffer containing 50 mM Tris and 750 mM NaCl (pH 7.4) was used for NE and PR3; a buffer containing 50 mM Tris, 750 mM NaCl, 5 mM EDTA (pH 7.4) was used for Cat G; and a buffer containing 25 mM MES, 50 mM NaCl, 5 mM DTT (pH 6.0) was used for CTSC. […]

PR3 [5] = assay: PR3 activity in blood and bone marrow of mice; format: in vivo, C57BL/6 mice; conditions: 30 mg/kg daily gavage, 7 days
Protocol: as §1

T1 sequence (P97821 25-462): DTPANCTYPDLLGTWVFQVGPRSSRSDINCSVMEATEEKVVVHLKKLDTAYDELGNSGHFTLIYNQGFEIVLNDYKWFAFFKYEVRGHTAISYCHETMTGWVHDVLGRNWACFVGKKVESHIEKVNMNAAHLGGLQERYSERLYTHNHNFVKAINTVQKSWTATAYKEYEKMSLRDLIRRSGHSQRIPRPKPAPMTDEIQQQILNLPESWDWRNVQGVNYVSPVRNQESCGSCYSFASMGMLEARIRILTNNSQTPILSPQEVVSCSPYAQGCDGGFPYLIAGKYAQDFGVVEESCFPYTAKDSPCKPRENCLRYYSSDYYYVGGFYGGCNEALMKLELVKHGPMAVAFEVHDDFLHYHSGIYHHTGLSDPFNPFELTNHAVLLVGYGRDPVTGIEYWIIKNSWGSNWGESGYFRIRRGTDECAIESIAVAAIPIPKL
Chain of CTSC (Homo sapiens, UniProt P53634) (P53634 25-134 limits assumed): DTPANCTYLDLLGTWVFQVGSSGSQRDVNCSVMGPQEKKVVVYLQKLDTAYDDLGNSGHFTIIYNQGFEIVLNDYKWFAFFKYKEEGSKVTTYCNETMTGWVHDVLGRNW
Chain of CTSC (Homo sapiens, UniProt P53634) (P53634 231-394 limits assumed): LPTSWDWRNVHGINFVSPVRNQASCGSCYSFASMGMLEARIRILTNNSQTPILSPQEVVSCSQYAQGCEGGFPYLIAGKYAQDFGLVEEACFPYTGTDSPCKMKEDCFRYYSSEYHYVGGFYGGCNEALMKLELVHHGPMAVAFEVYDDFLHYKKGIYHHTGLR
Chain of CTSC (Homo sapiens, UniProt P53634) (P53634 395-463 limits assumed): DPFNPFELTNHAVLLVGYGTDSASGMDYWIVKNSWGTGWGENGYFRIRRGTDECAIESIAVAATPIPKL

In the case of `C[C@@H]1C[C@H]2OC(=O)[C@@]3(C)CCC[C@@](C)([C@@H]23)[C@@]1(O)CCc1ccoc1` [Marrubiin, marrubiin], the “relative levels of TNF-α, IL-6, IL-1β, MCP-1, CXCL2” value [1] is reported as “reduced to varying degrees”, the “remaining activity rate of Cat G” value (Cat G; blood) is reported as about 35.5% and the “remaining activity rate of Cat G” value (Cat G; bone marrow) is reported as about 40.2%. For the same compound, the “remaining activity rate of CTSC” value (CTSC [2]; blood) was about 25.5%, the “remaining activity rate of CTSC” value (CTSC [2]; bone marrow) was “approximately 15.5%” and the IC50 (CTSC [3]) was 57.5 ± 1.3 nM. For the same compound, the “PR3 activity, % of DMSO group” value (PR3 [4]) was 10.3%, the “remaining activity rate of PR3” value (PR3 [5]; blood) was about 13.6% and the “remaining activity rate of PR3” value (PR3 [5]; bone marrow) was about 25.8%.
